# Where “and” joins values, the source holds several entries; their conditions need not be identical. Identical values can stand only once. Inconclusive results and toxic doses are left out.
# Test system: BDF1 mice, P388 leukemia ip, median survival T/C
# Test: NCI In Vivo Anticancer Drug Screen. Data for tumor model P388 Leukemia (intraperitoneal) in B6D2F1 (BDF1) mice
# Settings: endpoint: median survival time, higher = longer survival
# Summary of the method: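 Antitumour effect was judged in vivo: survival in drug-treated mice, normalised to that of vehicle-dosed controls, gives the reported T/C.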
# [1] = dose: 25.0 mg/kg/injection, schedule: Q01DX009 (ip), vehicle: saline with Tween-80
# [2] = dose: 50.0 mg/kg/injection, schedule: Q01DX009 (ip), vehicle: saline with Tween-80
# [3] = dose: 100.0 mg/kg/injection, schedule: Q01DX009 (ip), vehicle: saline with Tween-80
# [4] = dose: 100.0 mg/kg/injection, schedule: Q04DX003 (ip), vehicle: saline
# [5] = dose: 200.0 mg/kg/injection, schedule: Q04DX003 (ip), vehicle: saline
# [6] = dose: 200.0 mg/kg/injection, schedule: Q01DX009 (ip), vehicle: saline with Tween-80
smiles,measurement,setting,value
CN(C)[C@@H]1C(=O)C(C(=O)NCN(CCCl)CCCl)=C(O)[C@@]2(O)C(=O)C3=C(O)c4c(O)cccc4[C@@](C)(O)[C@H]3C[C@@H]12,T/C,"dose: 3.12 mg/kg/injection, schedule: Q01DX009 (ip), vehicle: saline with Tween-80",104 % of control
same,T/C,"dose: 6.25 mg/kg/injection, schedule: Q01DX009 (ip), vehicle: Klucel (hydroxypropylcellulose) (HPC)",91 % of control
same,T/C,"dose: 6.25 mg/kg/injection, schedule: Q01DX009 (ip), vehicle: saline with Tween-80",100 % of control
same,T/C,"dose: 9.0 mg/kg/injection, schedule: Q01DX009 (ip), vehicle: saline",159 % of control
same,T/C,"dose: 12.5 mg/kg/injection, schedule: Q01DX009 (ip), vehicle: Klucel (hydroxypropylcellulose) (HPC)",108 % of control
same,T/C,"dose: 12.5 mg/kg/injection, schedule: Q01DX009 (ip), vehicle: saline with Tween-80",100 % of control
same,T/C,"dose: 14.0 mg/kg/injection, schedule: Q01DX009 (ip), vehicle: saline",172 % of control
same,T/C,"dose: 20.0 mg/kg/injection, schedule: Q04DX003 (ip), vehicle: saline",150 % of control
same,T/C,"dose: 22.0 mg/kg/injection, schedule: Q01DX009 (ip), vehicle: saline",161 % of control and 209 % of control
same,T/C,[1],90 % of control and 109 % of control
same,T/C,"dose: 33.0 mg/kg/injection, schedule: Q01DX009 (ip), vehicle: saline",169 % of control
same,T/C,"dose: 33.0 mg/kg/injection, schedule: Q04DX003 (ip), vehicle: saline with Tween-80",163 % of control
same,T/C,"dose: 44.0 mg/kg/injection, schedule: Q04DX003 (ip), vehicle: saline",186 % of control
same,T/C,"dose: 50.0 mg/kg/injection, schedule: Q01DX009 (ip), vehicle: Klucel (hydroxypropylcellulose) (HPC)",163 % of control
same,T/C,[2],86 % of control and 109 % of control
same,T/C,"dose: 50.0 mg/kg/injection, schedule: Q01DX009 (ip), vehicle: saline",203 % of control and 208 % of control
same,T/C,"dose: 50.0 mg/kg/injection, schedule: Q04DX003 (ip), vehicle: saline with Tween-80",186 % of control
same,T/C,"dose: 67.0 mg/kg/injection, schedule: Q04DX003 (ip), vehicle: saline",196 % of control
same,T/C,"dose: 75.0 mg/kg/injection, schedule: Q01DX009 (ip), vehicle: saline",211 % of control
same,T/C,"dose: 75.0 mg/kg/injection, schedule: Q04DX003 (ip), vehicle: saline with Tween-80",218 % of control
same,T/C,[3],109 % of control
same,T/C,[4],229 % of control and 220 % of control
same,T/C,[5],91 % of control
O=C(CCNOCc1ccccc1)OCc1ccccc1,T/C,"dose: 12.5 mg/kg/injection, schedule: Q01DX009 (ip), vehicle: other",101 % of control
same,T/C,"dose: 25.0 mg/kg/injection, schedule: Q01DX009 (ip), vehicle: other",100 % of control
same,T/C,"dose: 50.0 mg/kg/injection, schedule: Q01DX009 (ip), vehicle: other",101 % of control
same,T/C,"dose: 200.0 mg/kg/injection, schedule: Q01DX009 (ip), vehicle: other",89 % of control
CN(C)[C@@H]1C(=O)C(C(=O)NCNC(CO)(CO)CO)=C(O)[C@@]2(O)C(=O)C3=C(O)c4c(O)cccc4[C@@](C)(O)[C@H]3C[C@@H]12,T/C,"dose: 25.0 mg/kg/injection, schedule: Q04DX003 (ip), vehicle: saline",100 % of control
same,T/C,"dose: 50.0 mg/kg/injection, schedule: Q04DX003 (ip), vehicle: saline",95 % of control
same,T/C,[4],90 % of control
same,T/C,[5],104 % of control
CCCCCCCC(=O)NCCCC,T/C,"dose: 100.0 mg/kg/injection, schedule: Q01DX001 (ip), vehicle: Klucel (hydroxypropylcellulose) (HPC)",104 % of control
same,T/C,"dose: 100.0 mg/kg/injection, schedule: Q04DX003 (ip), vehicle: Klucel (hydroxypropylcellulose) (HPC)",91 % of control
same,T/C,"dose: 200.0 mg/kg/injection, schedule: Q01DX001 (ip), vehicle: Klucel (hydroxypropylcellulose) (HPC)",86 % of control
same,T/C,"dose: 400.0 mg/kg/injection, schedule: Q01DX001 (ip), vehicle: Klucel (hydroxypropylcellulose) (HPC)",104 % of control
same,T/C,"dose: 400.0 mg/kg/injection, schedule: Q04DX003 (ip), vehicle: Klucel (hydroxypropylcellulose) (HPC)",100 % of control
C/C=C1\CN(C)[C@H]2Cc3c([nH]c4ccccc34)[C@@H](c3cc4[nH]c5c(c4cc3OC)CCN3C[C@H]4C[C@H](CC)[C@H]3[C@@]5(C(=O)OC)C4)C[C@H]1C2C(=O)OC (stereo not given in full),T/C,"dose: 5.0 mg/kg/injection, schedule: Q01DX010 (ip), vehicle: water",90 % of control
same,T/C,"dose: 10.0 mg/kg/injection, schedule: Q01DX010 (ip), vehicle: water",109 % of control
same,T/C,"dose: 20.0 mg/kg/injection, schedule: Q01DX010 (ip), vehicle: water",118 % of control
CCCC(=O)N(C)C(C)C(=O)OC1CC(=O)N(C)c2cc(cc(OC)c2Cl)C/C(C)=C/C=CC(OC)C2(O)CC(OC(=O)N2)C(C)C2OC12C (stereo not given),T/C,"dose: 0.1 micrograms/kg/injection, schedule: Q01DX009 (ip), vehicle: saline + alcohol",97 % of control
same,T/C,"dose: 0.2 micrograms/kg/injection, schedule: Q01DX009 (ip), vehicle: saline + alcohol",93 % of control
same,T/C,"dose: 0.4 micrograms/kg/injection, schedule: Q01DX009 (ip), vehicle: saline + alcohol",104 % of control
same,T/C,"dose: 0.8 micrograms/kg/injection, schedule: Q01DX009 (ip), vehicle: saline + alcohol",96 % of control and 112 % of control
same,T/C,"dose: 0.8 micrograms/kg/injection, schedule: Q01DX009 (ip), vehicle: saline",104 % of control
same,T/C,"dose: 1.6 micrograms/kg/injection, schedule: Q01DX009 (ip), vehicle: saline + alcohol",102 % of control and 107 % of control
same,T/C,"dose: 1.6 micrograms/kg/injection, schedule: Q01DX009 (ip), vehicle: saline",105 % of control
same,T/C,"dose: 3.1 micrograms/kg/injection, schedule: Q01DX009 (ip), vehicle: saline + alcohol",88 % of control and 111 % of control
same,T/C,"dose: 3.1 micrograms/kg/injection, schedule: Q01DX009 (ip), vehicle: saline",105 % of control
same,T/C,"dose: 6.2 micrograms/kg/injection, schedule: Q01DX009 (ip), vehicle: saline + alcohol",92 % of control and 114 % of control
same,T/C,"dose: 6.2 micrograms/kg/injection, schedule: Q01DX009 (ip), vehicle: saline",96 % of control
same,T/C,"dose: 12.5 micrograms/kg/injection, schedule: Q01DX009 (ip), vehicle: saline + alcohol",113 % of control
same,T/C,"dose: 12.5 micrograms/kg/injection, schedule: Q01DX009 (ip), vehicle: saline",110 % of control
same,T/C,"dose: 25.0 micrograms/kg/injection, schedule: Q01DX009 (ip), vehicle: saline + alcohol",97 % of control
same,T/C,"dose: 25.0 micrograms/kg/injection, schedule: Q01DX009 (ip), vehicle: saline",107 % of control
same,T/C,"dose: 25.0 nanograms/kg/injection, schedule: Q## X009 (ip), vehicle: other",94 % of control
same,T/C,"dose: 50.0 micrograms/kg/injection, schedule: Q01DX009 (ip), vehicle: saline + alcohol",105 % of control and 122 % of control
same,T/C,"dose: 50.0 micrograms/kg/injection, schedule: Q01DX009 (ip), vehicle: saline",116 % of control
same,T/C,"dose: 100.0 micrograms/kg/injection, schedule: Q01DX009 (ip), vehicle: saline + alcohol",111 % of control
same,T/C,"dose: 200.0 micrograms/kg/injection, schedule: Q01DX009 (ip), vehicle: saline + alcohol",111 % of control and 117 % of control
same,T/C,"dose: 200.0 nanograms/kg/injection, schedule: Q## X009 (ip), vehicle: other",88 % of control
same,T/C,"dose: 400.0 nanograms/kg/injection, schedule: Q## X009 (ip), vehicle: other",102 % of control
CCOC(=O)c1cn(COC)c2nc(SC)nc(NC(C)=O)c2c1=O,T/C,"dose: 100.0 mg/kg/injection, schedule: Q01DX001 (ip), vehicle: saline with Tween-80",105 % of control
same,T/C,"dose: 200.0 mg/kg/injection, schedule: Q01DX001 (ip), vehicle: saline with Tween-80",90 % of control
same,T/C,"dose: 400.0 mg/kg/injection, schedule: Q01DX001 (ip), vehicle: saline with Tween-80",90 % of control
CCCCCCCCCCC(=O)CCCCCC,T/C,"dose: 100.0 mg/kg/injection, schedule: Q04DX003 (ip), vehicle: other",104 % of control
same,T/C,"dose: 200.0 mg/kg/injection, schedule: Q04DX003 (ip), vehicle: other",122 % of control
same,T/C,"dose: 400.0 mg/kg/injection, schedule: Q04DX003 (ip), vehicle: other",109 % of control
O=C1OC(c2ccccc2)(c2ccccc2)c2ccccc21,T/C,"dose: 45.0 mg/kg/injection, schedule: Q01DX009 (ip), vehicle: Klucel (hydroxypropylcellulose) (HPC)",100 % of control
same,T/C,"dose: 65.0 mg/kg/injection, schedule: Q01DX009 (ip), vehicle: Klucel (hydroxypropylcellulose) (HPC)",90 % of control
same,T/C,"dose: 150.0 mg/kg/injection, schedule: Q01DX009 (ip), vehicle: Klucel (hydroxypropylcellulose) (HPC)",90 % of control
same,T/C,"dose: 200.0 mg/kg/injection, schedule: Q01DX009 (ip), vehicle: Klucel (hydroxypropylcellulose) (HPC)",90 % of control
same,T/C,"dose: 400.0 mg/kg/injection, schedule: Q01DX009 (ip), vehicle: Klucel (hydroxypropylcellulose) (HPC)",86 % of control
[O-][Cl+3]([O-])([O-])O.[O-][n+]1c2ccccc2nc2ccccc21.[Zn+2],T/C,[2],123 % of control
O/N=C1\CCCc2ccc(F)cc21,T/C,[1],100 % of control
same,T/C,[2],106 % of control and 108 % of control
same,T/C,[3],106 % of control
same,T/C,[6],109 % of control and 120 % of control
O=[N+]([O-])c1ccc(-c2nc(Cl)c3c(n2)CCCC3)o1,T/C,[2],95 % of control
same,T/C,[3],98 % of control
same,T/C,[6],97 % of control

# — PubChem BioAssay AID328 (DTP/NCI, 2004)
